Entries after “also recorded” stand apart in the source; their conditions may differ.
Experiments:
[1] = tested on: Lewis rat NMO disease models; test: NMO animal model: NMO patient serum and complement injected intrathecally, behavioral scoring; format: in vivo; conditions: for Behavioral score: intragastric daily, ACT001 60 mg/kg, hormone 30 mg/kg
Protocol: Meanwhile, before establishing NMO animal models, firstly, the spinal intrathecal catheterization was performed on Lewis rats, wherein an outlet could be placed at the spinal cord and at the first lumbar vertebra of the rat by controlling the length (7 cm) of a PE10 soft tube. For the Lewis rats after spinal intrathecal catheterization, they had no difference in behavior from normal rats the next day after the operation. Successfully modeled rats were divided into three groups, and 10 μL of each of the serum and complement system of an NMO patient was injected into the soft tubes in the rats for which the intubation was successful, and the supplementation was performed every four days. The administration regimen was as follows: the model control group (6 animals) was intragastrically administered normal saline every day for 15 consecutive days; the hormone group (8 animals) was intragastrically administered the methylprednisolone […] for injection every day at a dose of 30 mg/kg for 15 consecutive days; and the ACT001 group (6 animals) was intragastrically administered the ACT001 solution every day at a dose of 60 mg/kg for 15 consecutive days. The animal state was observed daily, and behavioral scores were recorded based on animal symptoms.
10 μL of each of the serum and complement system of an NMO patient was injected into the soft tubes in the rats for which the spinal intrathecal catheterization was successful, and the supplementation was performed every four days, thus establishing the NMO animal models. Model animals were randomized into three groups, namely: the normal saline group, the hormone (methylprednisolone sodium succinate for injection) group and the ACT001 group, and the administration regimen is as follows:
Behavioral scoring was performed based on animal symptoms.
The scoring criteria were as follows: • 0 point: no clinical symptoms; • 1 point: decreased tail tension or mild gait clumsiness; • 2 points: no tail tension or moderate gait abnormality; weakness of both hind limbs and recovery after being turned over passively; • 3 points: paralysis of both hind limbs. no recovery after being turned over passively, but capable of moving after stimulation; • 4 points: paralysis of both hind limbs. paralysis or weakened muscle strength of the forelimbs with urinary and fecal incontinence; • 5 points: moribund state or dead.
Symptoms between two stages were measured as ±0.5.

[2] = tested on: TNF-α release by LPS-activated BV-2 cells; test: TNF-α release/expression after LPS activation of BV-2 (ELISA); format: cell-based; conditions: for TNF-α expression in BV-2 cells: 1 μg/mL LPS
Protocol: (§1) BV2 cells were digested, counted and plated in a 24-well plate at 1 mL and 40,000 cells per well, and the cells were then incubated overnight in an incubator at 5% CO2 and 37° C. 1 μg/mL LPS was added into each well for 1 h of action, and then ACT001 at different concentrations was added. Five experimental groups were set, namely: (1) control group; (2) ACT001-2.5 μM group; (3) ACT001-5 μM group; (4) ACT001-10 μM group; and (5) ACT001-20 μM group. After 24 h of action, the drug action was completed, the supernatant was collected and centrifuged at 12,000 rpm for 20 min, and then ELISA was performed according to the kit instructions.

BV2 cells = test: Proliferation activity of microglial cell BV2 (MTT and CCK8 methods); format: cell-based; conditions: Mus musculus
Text: We then intended to use ACT001 for treating neuromyelitis optica.

[3] = tested on: NO release by LPS-activated BV-2 cells; test: NO release after LPS activation of BV-2; format: cell-based
Text: 5. FIG. 5 is a graph showing the effect of ACT001 on NO expression (*P<0.05, ** P<0.01, *** P<0.001).

[4] = tested on: IL-6 release by LPS-activated BV-2 cells; test: IL-6 release/expression after LPS activation of BV-2 (ELISA); format: cell-based; conditions: for IL-6 expression in BV-2 cells: 1 μg/mL LPS
Protocol: as §1, with “and 20,000” for “and 40,000”, “After 8” for “After 24”
as §1

[5] = LPS-activated BV-2, ACT001 10 μM, vs control group, fumarate
[6] = LPS-stimulated microglial cells, concentration not given, fumarate

| Compound | Behavioral score ([1]; day 0 of treatment) | Behavioral score ([1]; day 1 of treatment) | Behavioral score ([1]; day 2 of treatment) | Behavioral score ([1]; day 3 of treatment) | Behavioral score ([1]; day 4 of treatment) | Behavioral score ([1]; day 5 of treatment) | Behavioral score ([1]; day 6 of treatment) | Behavioral score ([1]; day 7 of treatment) | Behavioral score ([1]; day 8 of treatment) | Behavioral score ([1]; day 9 of treatment) | Behavioral score ([1]; day 10 of treatment) | Behavioral score ([1]; day 11 of treatment) | Behavioral score ([1]; day 12 of treatment) | Behavioral score ([1]; day 13 of treatment) | Behavioral score ([1]; day 14 of treatment) | other results |
| --- | --- | --- | --- | --- | --- | --- | --- | --- | --- | --- | --- | --- | --- | --- | --- | --- |
| C[C@H]1C[C@@H]2[C@H]([C@@H](O)C[C@@]3(C)[C@H]2CC[C@]3(O)C(=O)COC(=O)CCC(=O)O)[C@@]2(C)C=CC(=O)C=C12 [Hormone, methylprednisolone sodium succinate, reference compound] | 0.00 ± 0.00 points | 0.63 ± 0.64 points | 0.50 ± 0.38 points | 0.44 ± 0.32 points | 0.13 ± 0.23 points | 1.75 ± 0.46 points | 0.88 ± 0.23 points | 0.63 ± 0.35 points | 0.38 ± 0.23 points | 2.06 ± 0.42 points | 2.06 ± 0.42 points | 0.88 ± 0.35 points | 2.19 ± 0.26 points | 2.19 ± 0.59 points | 1.00 ± 0.38 points | Behavioral score (Table 3, major research results) ([1]; 20 Lewis rats, female, intragastrically once daily for 15 times): group was 2.0 ± 0.3. points; Behavioral score ([1]; day 15 of treatment): 2.31 ± 0.26 points; Behavioral score ([1]; day 15 of treatment, listed as hormone): 2.31±0.26 points |
| CC1=C2CC[C@@](C)(O)[C@@H]2[C@H]2OC(=O)[C@@H](CN(C)C)[C@@H]2CC1.O=C(O)/C=C/C(=O)O [ACT001, (3R,3aS,9R,9aS,9bS)-3-((dimethylamino)methyl)-9-hydroxy-6,9-dimethyl-3,3a,4,5,7,8,9,9a-octahydroazuleno[4,5-b]furan-2(9bH)-one fumarate] | 0.00 ± 0.00 points | 0.42 ± 0.20 points | 0.17 ± 0.26 points | 0.17 ± 0.26 points | 0.00 ± 0.00 points | 1.17 ± 0.68 points | 1.00 ± 0.45 points | 0.83 ± 0.68 points | 0.33 ± 0.26 points | 2.08 ± 0.86 points | 1.25 ± 0.61 points | 0.50 ± 0.00 points | 2.00 ± 0.32 points | 1.92 ± 0.38 points | 1.17 ± 0.26 points | TNF-α expression in BV-2 cells ([2]; ACT001 2.5, 5 and 10 μM dose groups, dose-dependent trend (FIG. 4)): reduce TNF-α expression; TNF-α expression in BV-2 cells ([2]; all ACT001 dose groups (2.5-20 μM), p<0.001 vs control (text on FIG. 3)): significantly reduced; release/expression of TNF-α [2, 5]: remarkably reduce; also recorded: significantly reduced; release of TNF-α [2, 6]: significantly reduced; IC50 (BV2 cells; BV-2, MTT/CCK8, read-out: IC50, inhibition of proliferation of BV2 cells): 23.6 µM; IC90 (BV2 cells; BV-2, read-out: IC90, in vitro activity inhibition against BV2 cells): 99.1 ± 10.2 µM; tolerance of animals during administration ([1]; ACT001 60 mg/kg intragastric daily, 15 days): well tolerated; disease symptoms / behavioral scores compared to the normal saline control group ([1]; ACT001 60 mg/kg intragastric daily, 15 days, fumarate, 60 mg/kg): significantly alleviated; also recorded: significantly reduce the behavioral scores; also recorded: significantly relieve clinical symptoms; effect compared to the hormone treatment group ([1]; ACT001 60 mg/kg vs methylprednisolone 30 mg/kg, intragastric, 15 days, fumarate): not weaker than that of hormone; also recorded: basically equivalent; Behavioral score ([1]; day 15 of treatment, fumarate): 2.00±0.32 points; pathological release of microglial cells NO ([3]; ACT001 5 μM (FIG. 5)): significantly could reduce; release of NO ([3]; LPS-activated microglia, ACT001 10 μM): remarkably reduce; release of NO [3, 6]: significantly reduced; IL-6 expression in BV-2 cells ([4]; ACT001 20 μM, p<0.001 vs control): significantly reduced; IL-6 expression in BV-2 cells ([4]; all ACT001 groups (2.5, 5, 10, 20 μM), dose-dependent trend): reduce IL-6 expression; release/expression of IL-6 [4, 5]: remarkably reduce; also recorded: significantly reduced; release of IL-6 [4, 6]: significantly reduced |
